This note sets out measurements from ChEMBL document CHEMBL5131412, “Synthesis of unnatural morphinan compounds to induce itch-like behaviors in mice: Towards the development of MRGPRX2 selective ligands” (Bioorg Med Chem Lett, 2022).

Calls of active or inactive are those of the source. No cut-off for these calls is given here. Bridge positions count the residues as written; N and C are the ends. Peptide text beside a SMILES is read from it.

In general, EC50 refers to the concentration at which the effect is half-maximal. Read a low EC50 as a more potent agent.

The species entered for assay [1] is Mus musculus. The assay is described as follows: Increase in number of nociceptive behaviors in mouse at 30 ug, it. It counts as functional. As to conditions: dose 30.0 µg.
The species named for assay [2] is Mus musculus. Description: Increase in number of nociceptive behaviors in mouse at 3 to 30 ug, it. It counts as functional. The following applies: dose 3-30 µg, DDE = dose-dependent effect.
For assay [3], the species on record is Mus musculus. The assay is described as follows: Increase in number of scratching behaviors in mouse at 3 to 300 ug, id. It is filed as functional. The following applies: dose 3-300 µg, DDE = dose-dependent effect.
Assay [4] concerns the target T1, Mas-related G-protein coupled receptor member X2 (Homo sapiens) (UniProt Q96LB1).
T1 sequence (whole entry): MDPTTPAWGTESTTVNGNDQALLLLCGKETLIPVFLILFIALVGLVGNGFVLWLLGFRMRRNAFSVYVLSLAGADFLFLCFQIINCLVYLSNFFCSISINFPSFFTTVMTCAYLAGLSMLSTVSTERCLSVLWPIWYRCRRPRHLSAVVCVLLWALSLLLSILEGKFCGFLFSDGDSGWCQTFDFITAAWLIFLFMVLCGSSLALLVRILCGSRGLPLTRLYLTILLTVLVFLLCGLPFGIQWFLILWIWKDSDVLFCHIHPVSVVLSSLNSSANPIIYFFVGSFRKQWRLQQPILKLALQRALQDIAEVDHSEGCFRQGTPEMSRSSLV
The assay is described as follows: Agonist activity at MRGPRX2 (unknown origin) expressed in HEK293 cells assessed as induction of G(o) dissociation by measuring luminescent decay at 32 uM by NanoBiT-G-protein dissociation assay. It counts as functional, cell-based. The following applies: filed as agonist.

Assay [5] addresses T2, Mas-related G-protein coupled receptor member B2 (Mus musculus) (UniProt Q3KNA1).
T2 sequence (whole entry): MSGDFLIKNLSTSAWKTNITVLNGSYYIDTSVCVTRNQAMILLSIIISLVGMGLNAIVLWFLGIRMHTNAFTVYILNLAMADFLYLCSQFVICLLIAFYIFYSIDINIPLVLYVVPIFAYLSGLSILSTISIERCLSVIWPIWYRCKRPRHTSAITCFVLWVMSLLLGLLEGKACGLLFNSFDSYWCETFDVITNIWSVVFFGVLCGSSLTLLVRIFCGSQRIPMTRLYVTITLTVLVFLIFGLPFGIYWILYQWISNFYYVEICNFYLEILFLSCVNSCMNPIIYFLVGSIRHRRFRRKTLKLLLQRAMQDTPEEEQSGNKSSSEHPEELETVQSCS
Description: Agonist activity at mouse Mrgprb2 expressed in HEK293 cells assessed as induction of G(o) dissociation by measuring luminescent decay at 32 uM by NanoBiT-G-protein dissociation assay. It counts as cell-based. As to conditions: filed as agonist.

In assay [6] the target is T2, Mas-related G-protein coupled receptor member B2 (Mus musculus). The assay is described as follows: Agonist activity at mouse Mrgprb2 expressed in HEK293 cells assessed as induction of G(o) dissociation by measuring luminescent decay at 10 uM by NanoBiT-G-protein dissociation assay. It counts as cell-based. As to conditions: filed as agonist.
Assay [7] has as its target T1, Mas-related G-protein coupled receptor member X2 (Homo sapiens). Description: Agonist activity at MRGPRX2 (unknown origin) expressed in HEK293 cells assessed as induction of G(o) dissociation by measuring luminescent decay at 10 uM by NanoBiT-G-protein dissociation assay. It is filed as functional, cell-based. As to conditions: filed as agonist.
Assay [8] deals with T3, Mas-related G-protein coupled receptor member X2 (Homo sapiens, UniProt Q96LB1).
T3 sequence (Q96LB1 whole entry): T1 sequence (whole entry)
Description: Agonistic activity at MRGPRX2 (unknown origin).

As to `CN1CC[C@]23Cc4nc5ccccc5cc4C[C@@]2(O)[C@H]1Cc1ccc(O)cc13`, the outcome (in the assay listed under Mus musculus [1]; in assay [4]; in assay [5]) was Active. Besides, the Activity result in the assay listed under Mus musculus [2] and in the assay listed under Mus musculus [3] was “Dde” throughout.

As to `C[C@@H](O)[C@@H]1NC(=O)[C@H](CCCCN)NC(=O)[C@H](Cc2c[nH]c3ccccc23)NC(=O)[C@H](Cc2ccccc2)NC(=O)[C@H](Cc2ccccc2)NC(=O)[C@H](CC(N)=O)NC(=O)[C@H](CCCCN)NC(=O)[C@@H](NC(=O)[C@@H]2CCCN2)CSSC[C@@H](C(=O)N[C@@H](CCCCN)C(=O)O)NC(=O)[C@H](CO)NC(=O)[C@H](CO)NC(=O)[C@H](Cc2ccccc2)NC1=O` (H-PCKNFFWKTFSSCK-OH; disulfide 2-13), the result in assay [6] and in assay [7] was Active.

Take `CN1CC[C@]2(c3cccc(O)c3)Cc3nc4ccccc4cc3C[C@@H]2C1`: the EC50 in assay [8] is 290 nM. The outcome in assay [4] and in assay [5] was Active.
